Each compound was assayed against mouse TRPM3α2 (mTRPM3) ion channel (Mus musculus (Mouse), UniProt J9SQF3) (assay: TRPM3 ion channel driven Ca2+ uptake, Fluo-4 AM assay, mTRPM3alpha2 overexpressing flip-in HEK293 cells stimulated with pregnenolone sulfate). Conditions: PS (50 μM) stimulated, cpds. 500-599.
Type: cell-based
Experimental: Part B Monitoring the TRPM3 Ion Channel Driven Ca^2+ Uptake.
In order to monitor the inhibition of the mouse TRPM3α2 (mTRPM3) ion channel by the compounds of the invention, a cellular system making use of an mTRPM3alpha2 or hTRPM3 overexpressing cell line (flip-in HEK293) was used. The TRPM3 channel was stimulated/opened with Pregnenolone sulfate (PS) (50 μM) which results in Ca^2+ influx.
For mTRPM3, the intracellular Ca^2+ was measured with a Calcium responsive dye. Fluor-4 AM ester (Invitrogen). Cells were cultured until a confluence of 80-90%, washed with Versene (Invitrogen) and detached from the surface by a short incubation with 0.05% Trypsin (Invitrogen). The trypsination process was stopped by the addition of complete cell culture medium (DMEM, glutamax, 10% FCS,NEAA,Pen-Strep). Cells were collected and resuspended in Krebs buffer without Calcium at RT.
Prior the cell seeding (±2000 cells/well into a black, 384 well plate (Greiner)) the diluted compound was added in the assay plate, together with the PS dissolved in Krebs buffer containing Calcium. […] Directly after cell addition the plates were read on an Envision fluorescence reader (Perkin Elmer) by an Excitation of 485 nm and emission at 535 nm.
Channel inhibition was calculated compared to a non-PS stimulated control versus a condition stimulated with PS (50 μM) with vehicle. The ability of the compounds of the invention to inhibit this activity was determined as: Percentage inhibition=[1-((RFU determined for sample with test compound present—RFU determined for sample with positive control inhibitor) divided by (RFU determined in the presence of vehicle—RFU determined for sample with positive control inhibitor))]*100.

Chain of mouse TRPM3α2 (mTRPM3) ion channel (J9SQF3 other isoform, or with tags, fused parts or gaps): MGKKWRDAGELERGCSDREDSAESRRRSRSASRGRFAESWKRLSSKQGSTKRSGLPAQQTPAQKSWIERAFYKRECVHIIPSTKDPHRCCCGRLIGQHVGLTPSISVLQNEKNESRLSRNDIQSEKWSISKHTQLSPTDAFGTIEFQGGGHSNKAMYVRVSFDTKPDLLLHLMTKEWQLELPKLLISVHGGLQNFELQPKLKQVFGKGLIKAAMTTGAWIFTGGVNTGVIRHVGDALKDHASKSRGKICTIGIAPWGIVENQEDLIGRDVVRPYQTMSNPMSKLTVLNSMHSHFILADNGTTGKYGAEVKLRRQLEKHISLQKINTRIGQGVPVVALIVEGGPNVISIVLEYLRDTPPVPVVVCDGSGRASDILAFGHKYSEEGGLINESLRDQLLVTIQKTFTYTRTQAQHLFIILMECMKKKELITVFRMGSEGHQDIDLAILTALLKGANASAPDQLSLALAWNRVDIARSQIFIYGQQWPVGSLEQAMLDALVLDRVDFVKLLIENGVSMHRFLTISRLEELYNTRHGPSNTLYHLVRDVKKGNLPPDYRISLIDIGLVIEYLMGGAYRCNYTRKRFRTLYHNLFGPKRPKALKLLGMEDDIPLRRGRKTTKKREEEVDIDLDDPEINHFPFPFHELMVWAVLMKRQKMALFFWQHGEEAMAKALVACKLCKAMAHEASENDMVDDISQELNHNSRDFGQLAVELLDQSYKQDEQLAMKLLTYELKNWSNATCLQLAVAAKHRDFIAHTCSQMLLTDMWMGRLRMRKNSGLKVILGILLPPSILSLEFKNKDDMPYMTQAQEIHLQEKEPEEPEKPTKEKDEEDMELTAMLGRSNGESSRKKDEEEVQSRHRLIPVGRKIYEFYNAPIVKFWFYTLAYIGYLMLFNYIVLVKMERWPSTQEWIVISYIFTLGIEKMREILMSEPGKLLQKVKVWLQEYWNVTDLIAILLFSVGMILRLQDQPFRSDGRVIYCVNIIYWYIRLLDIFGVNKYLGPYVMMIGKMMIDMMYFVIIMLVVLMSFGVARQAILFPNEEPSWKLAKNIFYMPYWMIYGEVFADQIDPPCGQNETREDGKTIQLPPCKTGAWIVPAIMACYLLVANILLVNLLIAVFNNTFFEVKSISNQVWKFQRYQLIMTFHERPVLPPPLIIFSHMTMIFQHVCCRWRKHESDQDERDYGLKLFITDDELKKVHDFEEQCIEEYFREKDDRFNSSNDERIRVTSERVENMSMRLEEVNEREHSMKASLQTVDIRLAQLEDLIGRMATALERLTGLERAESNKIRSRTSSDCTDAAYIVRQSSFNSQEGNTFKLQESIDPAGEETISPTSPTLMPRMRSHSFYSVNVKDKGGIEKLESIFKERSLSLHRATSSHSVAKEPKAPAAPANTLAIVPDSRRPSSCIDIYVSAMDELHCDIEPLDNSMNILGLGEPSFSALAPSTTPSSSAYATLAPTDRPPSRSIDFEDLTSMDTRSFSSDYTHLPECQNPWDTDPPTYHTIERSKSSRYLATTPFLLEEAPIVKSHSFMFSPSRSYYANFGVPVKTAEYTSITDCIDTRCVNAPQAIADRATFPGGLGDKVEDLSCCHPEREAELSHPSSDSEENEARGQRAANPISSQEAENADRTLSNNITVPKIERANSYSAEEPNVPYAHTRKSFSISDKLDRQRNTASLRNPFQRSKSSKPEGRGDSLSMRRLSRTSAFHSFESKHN

Row | IC50 [µM] | Structure (SMILES)
1 | 1 to 20 | Cc1oc2ccc(OCc3cccnc3C(F)(F)F)c(C)c2c1C(=O)NC1CCNCC1(F)F (single isomer, unassigned) [cpd 538-En 1]
2 | 1 to 20 | Cc1oc2ccc(OCc3cccnc3C(F)(F)F)cc2c1C(=O)NC1CCNCC1(F)F (single isomer, unassigned) [cpd 539-En 1]
3 | < 1 | Cc1oc2ccc(OCc3cccnc3C(F)(F)F)cc2c1C(=O)NC1CCNCC1(F)F (single isomer, unassigned) [cpd 539-En 2]
4 | 1 to 20 | Cc1oc2ccc(OCc3cn(C)nn3)cc2c1C(=O)NC1CCNCC1(F)F (single isomer, unassigned) [cpd 540-En 1]
5 | > 20 | Cc1oc2ccc(OCc3cn(C)nn3)cc2c1C(=O)NC1CCNCC1(F)F (single isomer, unassigned) [cpd 540-En 2]
6 | 1 to 20 | Cc1oc2ccc(OCc3cnnn3C)cc2c1C(=O)NC1CCNCC1(F)F (single isomer, unassigned) [cpd 541-En 1]
7 | > 20 | Cc1oc2ccc(OCc3cnnn3C)cc2c1C(=O)NC1CCNCC1(F)F (single isomer, unassigned) [cpd 541-En 2]
8 | 1 to 20 | Cc1oc2ccc(OCc3ncn(C)n3)cc2c1C(=O)NC1CCNCC1(F)F (single isomer, unassigned) [cpd 542-En 1]
9 | > 20 | Cc1oc2ccc(OCc3ncn(C)n3)cc2c1C(=O)NC1CCNCC1(F)F (single isomer, unassigned) [cpd 542-En 2]
10 | < 1 | Cc1oc2ccc(OCc3ccnn3C)cc2c1C(=O)NC1CCNCC1(F)F (single isomer, unassigned) [cpd 543-En 1]
11 | 1 to 20 | Cc1oc2ccc(OCc3cccc(=O)n3C)cc2c1C(=O)NC1CCNCC1(F)F (single isomer, unassigned) [cpd 545-En 1]
12 | < 1 | Cc1oc2ccc(OCc3cccnc3C(F)(F)F)cc2c1C(=O)NC1CCNCC1(F)F (single isomer, unassigned) [cpd 546-En 1]
13 | < 1 | Cc1ncccc1COc1ccc2oc(C)c(C(=O)NC3CCNCC3(F)F)c2c1 (single isomer, unassigned) [cpd 547-En 1]
14 | 1 to 20 | Cc1nccc(COc2ccc3oc(C)c(C(=O)NC4CCNCC4(F)F)c3c2)n1 (single isomer, unassigned) [cpd 548-En 1]
15 | > 20 | Cc1nccc(COc2ccc3oc(C)c(C(=O)NC4CCNCC4(F)F)c3c2)n1 (single isomer, unassigned) [cpd 548-En 2]
16 | < 1 | Cc1ncc(COc2ccc3oc(C)c(C(=O)NC4CCNCC4(F)F)c3c2)s1 (single isomer, unassigned) [cpd 549-En 1]
17 | 1 to 20 | Cc1ncc(COc2ccc3oc(C)c(C(=O)NC4CCNCC4(F)F)c3c2)s1 (single isomer, unassigned) [cpd 549-En 2]
18 | 1 to 20 | Cc1oc2ccc(OCC3(C)COC3)cc2c1C(=O)NC1CCNCC1(F)F (single isomer, unassigned) [cpd 550-En 1]
19 | < 1 | Cc1coc(COc2ccc3oc(C)c(C(=O)NC4CCNCC4(F)F)c3c2)n1 (single isomer, unassigned) [cpd 551-En 1]
20 | 1 to 20 | Cc1coc(COc2ccc3oc(C)c(C(=O)NC4CCNCC4(F)F)c3c2)n1 (single isomer, unassigned) [cpd 551-En 2]
21 | < 1 | Cc1csc(COc2ccc3oc(C)c(C(=O)NC4CCNCC4(F)F)c3c2)n1 (single isomer, unassigned) [cpd 552-En 1]
22 | 1 to 20 | Cc1csc(COc2ccc3oc(C)c(C(=O)NC4CCNCC4(F)F)c3c2)n1 (single isomer, unassigned) [cpd 552-En 2]
23 | < 1 | Cc1cc(COc2ccc3oc(C)c(C(=O)NC4CCNCC4(F)F)c3c2)no1 (single isomer, unassigned) [cpd 553-En 1]
24 | 1 to 20 | Cc1cc(COc2ccc3oc(C)c(C(=O)NC4CCNCC4(F)F)c3c2)no1 (single isomer, unassigned) [cpd 553-En 2]
25 | < 1 | Cc1cnc(COc2ccc3oc(C)c(C(=O)NC4CCNCC4(F)F)c3c2)cn1 (single isomer, unassigned) [cpd 554-En 1]
26 | > 20 | Cc1cnc(COc2ccc3oc(C)c(C(=O)NC4CCNCC4(F)F)c3c2)cn1 (single isomer, unassigned) [cpd 554-En 2]
27 | < 1 | Cc1cnc(COc2ccc3oc(C)c(C(=O)NC4CCNCC4(F)F)c3c2)s1 (single isomer, unassigned) [cpd 555-En 1]

Row | IC50 [µM] | Structure (SMILES)
28 | 1 to 20 | Cc1cnc(COc2ccc3oc(C)c(C(=O)NC4CCNCC4(F)F)c3c2)s1 (single isomer, unassigned) [cpd 555-En 2]
29 | 1 to 20 | Cc1ccc(COc2ccc3oc(C)c(C(=O)NC4CCNCC4(F)F)c3c2)nn1 (single isomer, unassigned) [cpd 556-En 1]
30 | > 20 | Cc1ccc(COc2ccc3oc(C)c(C(=O)NC4CCNCC4(F)F)c3c2)nn1 (single isomer, unassigned) [cpd 556-En 2]
31 | < 1 | Cc1oc2ccc(OCc3cccnn3)cc2c1C(=O)NC1CCNCC1(F)F (single isomer, unassigned) [cpd 557-En 1]
32 | < 1 | Cc1oc2ccc(OCc3cccnc3)cc2c1C(=O)NC1CCNCC1(F)F (single isomer, unassigned) [cpd 558-En 1]
33 | 1 to 20 | Cc1oc2ccc(OCc3ncccn3)cc2c1C(=O)NC1CCNCC1(F)F (single isomer, unassigned) [cpd 559-En 1]
34 | > 20 | Cc1oc2ccc(OCc3ncccn3)cc2c1C(=O)NC1CCNCC1(F)F (single isomer, unassigned) [cpd 559-En 2]
35 | < 1 | Cc1oc2ccc(OCc3nccs3)cc2c1C(=O)NC1CCNCC1(F)F (single isomer, unassigned) [cpd 560-En 1]
36 | < 1 | Cc1oc2ccc(OCc3nccs3)cc2c1C(=O)NC1CCNCC1(F)F (single isomer, unassigned) [cpd 560-En 2]
37 | < 1 | Cc1oc2ccc(OCc3cncs3)cc2c1C(=O)NC1CCNCC1(F)F (single isomer, unassigned) [cpd 561-En 1]
38 | < 1 | Cc1ncsc1COc1ccc2oc(C)c(C(=O)NC3CCNCC3(F)F)c2c1F (single isomer, unassigned) [cpd 562-En 1]
39 | < 1 | Cc1nc(C)c(COc2ccc3oc(C)c(C(=O)NC4CCNCC4(F)F)c3c2)s1 (single isomer, unassigned) [cpd 563-En 1]
40 | < 1 | Cc1oc2ccc(OCc3cccnc3O)cc2c1C(=O)NC1CCNCC1(F)F (single isomer, unassigned) [cpd 564-En 1]
41 | < 1 | COc1ncccc1COc1ccc2oc(C)c(C(=O)NC3CCNCC3(F)F)c2c1 (single isomer, unassigned) [cpd 565-En 1]
42 | < 1 | COc1ncccc1COc1ccc2oc(C)c(C(=O)NC3CCNCC3(F)F)c2c1 (single isomer, unassigned) [cpd 565-En 2]
43 | < 1 | Cc1oc2ccc(OCc3ncccc3F)cc2c1C(=O)NC1CCNCC1(F)F (single isomer, unassigned) [cpd 566-En 1]
44 | 1 to 20 | Cc1oc2ccc(OCc3ncccc3F)cc2c1C(=O)NC1CCNCC1(F)F (single isomer, unassigned) [cpd 566-En 2]
45 | > 20 | Cc1oc2ccc(OCc3ccc(OCCO)cn3)cc2c1C(=O)NC1CCNCC1(F)F (single isomer, unassigned) [cpd 567-En 1]
46 | < 1 | Cc1oc2ccc(OCc3ccc(F)cn3)cc2c1C(=O)NC1CCNCC1(F)F (single isomer, unassigned) [cpd 568-En 1]
47 | 1 to 20 | Cc1oc2ccc(OCc3ccc(F)cn3)cc2c1C(=O)NC1CCNCC1(F)F (single isomer, unassigned) [cpd 568-En 2]
48 | < 1 | COc1cccc(COc2ccc3oc(C)c(C(=O)NC4CCNCC4(F)F)c3c2)n1 (single isomer, unassigned) [cpd 570-En 1]
49 | 1 to 20 | COc1cccc(COc2ccc3oc(C)c(C(=O)NC4CCNCC4(F)F)c3c2)n1 (single isomer, unassigned) [cpd 570-En 2]
50 | 1 to 20 | Cc1oc2ccc(OCc3ccc4nccn4c3)cc2c1C(=O)NC1CCNCC1(F)F (single isomer, unassigned) [cpd 571-En 1]
51 | < 1 | Cc1ncsc1COc1cc2c(C(=O)NC3CCNCC3(F)F)c(C)oc2cc1F (single isomer, unassigned) [cpd 572-En 1]
52 | < 1 | Cc1ncsc1COc1cc(F)c2oc(C)c(C(=O)NC3CCNCC3(F)F)c2c1 (single isomer, unassigned) [cpd 573-En 1]
53 | 1 to 20 | Cc1ncsc1COc1cc(F)c2oc(C)c(C(=O)NC3CCNCC3(F)F)c2c1 (single isomer, unassigned) [cpd 573-En 2]

Same assay, conditions: PS (50 μM) stimulated, cpds. 608-666

Row | IC50 [µM] | Structure (SMILES)
54 | < 1 | Cc1oc2ccc(OCc3nccn3C)cc2c1C(=O)NC1CNCCC1(F)F (single isomer, unassigned) [cpd 635-En 1]
55 | 1 to 20 | Cc1oc2ccc(OCc3nccn3C)cc2c1C(=O)NC1CNCCC1(F)F (single isomer, unassigned) [cpd 635-En 2]
56 | < 1 | Cc1oc2ccc(OCc3ccnn3C)cc2c1C(=O)NC1CNCCC1(F)F (single isomer, unassigned) [cpd 636-En 1]

— patent US12209081B2 (Katholieke Universiteit Leuven, priority 2020, dated 2025)
